Experimental data taken from patent US20180353501A1 (Arvinas, Inc., priority 2017, published 2018).

Experiments:
cMET = target: T1, cMET (Homo sapiens, UniProt P08581); test: Cellular assay of target protein degradation (MDA-MB-231 cells, ELISA); assay type: cell-based
T1 construct: endogenous in cells; host or cells: MDA-MB-231
Procedure: (§1) Protocol of the cellular assay of target protein degradation (MDA-MB-231 cells, ELISA).
(§2) For detection Cell Signaling PathScan Sandwich ELISA Catalog#12850 was used. MDA-MB-231 cells and […] were cultured in ATCC DMEM+ATCC FBS and plated 40,000/well 100 μl/well in RPMI P/S with 5% CSS Omega (bovine) serum into a 96 well plate. The cells were grown for a minimum of 3 days, dosed with compounds in 0.1% DMSO (diluted with 5% CSS) and incubated with aspiration for 4 hours. 100 μl of 1× Cell Signaling lysis buffer #9803 (36 mL dH2O+4 mL Cell Signaling lysis buffer) was added. The incubation was placed on cold room shaker for 10 minutes at speed 8-9.5 μl to 100 μL of Diluent was transferred to ELISA plate (0.15 μg/mL-0.075 μg/mL) and stored at 4° C. overnight on cold room shaker speed 5 (gentle swirl) and then shaken next morning at 37° C. for 30 minutes. The preparation was washed 4×200 μl with ELISA wash buffer and aspirated with eight-channel aspirator. 100 μl/well of target protein detection antibody was added after, which the preparation was covered and shaken at 37° C. for 1 hour. 100 μl TMB was added, and the mixture was shaken for 5 min while under observation. When TMB turned light blue, 100 μl of Stop solution was added, and the mixture was shaken and read at 450 nm. Also read at 562 nm for background subtraction.

p38α [1] = target: T2, p38α (Homo sapiens, UniProt Q16539); test: as above; assay type: cell-based
T2 construct: selectively degrades p38α, whereas exemplary PROTAC 46 (10-atom linker, phenyl attachment) selectively degrades p38δ in MDA-MB-231 cells; endogenous in cells; host or cells: MDA-MB-231
Procedure: as §1, §2

p38δ [2] = target: T3, p38δ (Homo sapiens, UniProt O15264); test: as above; assay type: cell-based; settings: for DC50: read-out: p38δDC50/nM [MDA-MB-231]
T3 construct: endogenous in cells; host or cells: MDA-MB-231 (intact cells for degradation; cleared cell lysate for CETSA)
T3 sequence (O15264 1-365): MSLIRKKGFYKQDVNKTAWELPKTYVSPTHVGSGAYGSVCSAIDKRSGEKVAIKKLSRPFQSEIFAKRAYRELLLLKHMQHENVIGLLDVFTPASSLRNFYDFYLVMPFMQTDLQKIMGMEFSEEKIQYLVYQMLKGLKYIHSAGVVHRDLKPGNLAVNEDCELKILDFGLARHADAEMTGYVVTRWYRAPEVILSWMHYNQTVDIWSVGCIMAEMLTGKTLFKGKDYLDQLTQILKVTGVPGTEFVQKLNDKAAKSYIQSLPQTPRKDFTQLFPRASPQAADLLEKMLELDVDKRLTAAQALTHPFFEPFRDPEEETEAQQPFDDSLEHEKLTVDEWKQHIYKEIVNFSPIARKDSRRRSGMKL
Procedure: as §1, §2

p38α [3] = target: T2, p38α; test: Western blot survey of p38 isoform degradation in MDA-MB-231 cells (incl. proteasome rescue, CHX chase, washout); assay type: cell-based; settings: MDA-MB-231 cells, western blot; for Dmax: read-out: p38α Dmax (maximum percentage of degradation achieved)
Procedure: (§3) FIGS. 11A and 11B. Survey of p38 isoform degradation with foretinib-based VHL PROTACs (related to FIGS. 9A-9C and Table 13). (A) Western blots of amide series PROTACs tested in increasing concentrations (0.025, 0.100, 0.250, 1.0, 5.0 μM) on MDA-MB-231 cells, in duplicate. (B) Same as in (A) but with the phenyl series PROTACs. Summary table of the DC50 (concentration at which half-maximal degradation is achieved) and Dmax (maximum percentage of degradation achieved) is reported, per exemplary PROTAC, in Table 13.
(§4) FIGS. 13A, 13B, 13C, and 13D. Exemplary compounds 50 and 46 degrade p38 isoforms in a manner that is rapid, sustained, and proteasome-dependent. (A) MDA-MB-231 cells were either pre-treated or not with the proteasome inhibitor epoxomicin (1 μM) or the neddylation inhibitor MLN4924 (1 μM) for 30 minutes and subsequently treated with either vehicle (DMSO), exemplary compound 50 (250 nM), or exemplary compound 46 (250 nM) for 6 hours. (B) Quantitative real-time PCR was performed after 24 hours of treatment with either vehicle (DMSO), exemplary compound 50 (250 nM), or exemplary compound 46 (250 nM) in MDAMB-231 cells. The dotted line represents DMSO-treated conditions standardized to a value of 1.0 and mRNA abundance (per treatment group) is represented as a foldchange relative to that value. Data is based on biological duplicates and is normalized to beta-tubulin. (C) Cycloheximide (CHX) chase assay. MDA-MB-231 cells were pre-treated with 100 μg/mL CHX for 1 hour prior to treating for the indicated times with either vehicle (DMSO), exemplary compound 50 (250 nM), or exemplary compound 46 (250 nM). Tubulin-normalized p38α and p38δ abundance values are reported beneath individual lanes. (D) MDA-MB231 cells were treated with either vehicle (DMSO), exemplary compound 50 (250 nM), or exemplary compound 46 (250 nM) for 24 hours before re-plating onto new plastic in fresh medium for an additional 24, 48, or 72 hours (“washout” conditions).
(§5) Cell culture. MDA-MB-231 and HeLa cells were obtained from the American Type Culture Collection (ATCC), cultured in RPMI-1640 (1×) and DMEM (1×) medium, respectively, containing 10% fetal bovine serum (FBS) and 1% penicillin-streptomycin and grown in a humidified incubator at 37° C. and 5% CO2.
(§6) Lysates from MDA-MB-231 cells were washed once with ice cold PBS (1×), followed by lysis in buffer containing 25 mM Tris [pH 7.5], 0.25% sodium deoxycholate, 1% Triton X-100, supplemented with 1× protease inhibitor cocktail (Roche) and phosphatase inhibitors (10 mM NaF, 1 mM Na3VO4, and 20 mM β-glycerophosphate), unless otherwise noted. Lysates were spun at 14,000×g for 10 minutes at 4° C. and supernatant was evaluated for protein content using a Pierce BCA Protein Assay (Thermo Fisher Scientific). 25 to 50 μg of protein was loaded onto 10% SDS-PAGE gels or 4-20% Criterion TGX precast gradient gels (Bio-Rad), transferred to nitrocellulose membranes, and probed with the specified antibodies overnight at 4° C. in 1×TBS-Tween (Tris buffered saline plus 0.02% Tween 20) containing 5% non-fat milk. Immunoblots were visualized using a Bio-Rad ChemiDoc imaging instrument and subsequently processed and quantified using the accompanying Bio-Rad ImageLab software.
(§7) MDA-MB-231 cells were plated at 3×10^5 cells per well in a 6-well dish, allowed to adhere overnight, and switched to serum-free RPMI-1640 (1×) media for 16 hours. Cells were then pre-treated with cycloheximide (Sigma) at 100 μg mL^−1 for 1 hour prior to adding either vehicle (DMSO) or PROTAC (250 nM). At the indicated timepoints, cells were immediately placed on ice, rinsed with 1×PBS, lysed, and boiled.
(§8) MDA-MB-231 cells were plated at 1.5×10^5 cells per well in a 6-well dish and allowed to adhere overnight. On the following day, all cells were treated with either vehicle (DMSO) or PROTAC (250 nM). […]

p38δ [4] = target: T3, p38δ; test: as above; assay type: cell-based; settings: MDA-MB-231 cells, western blot
Procedure: as §3, §4, §5, §6, §7, §8

MAK = target: T4, MAK (Homo sapiens, UniProt P20794); test: KINOMEscan in vitro kinase binding; settings: screened at 1000 nM; lower number = stronger binding
T4 construct: purchased DiscoverRx Corporation (KINOMEscan platform, service)
Procedure: In Vitro Kinase Binding Affinity Determination for Example 1 and Example 2.
PROTAC in vitro binding affinities (Kd) to c-Met was determined using the KINOMEscan™ platform (DiscoverRx Corporation). The compounds were solubilized in DMSO and sent to DiscoverRx Corporation as 10 μM stock solutions.
Example 1 and Example 2 were screened at a 1000 nM concentration, and the results of the binding interactions are reported in “% Ctrl”, where a lower number indicates stronger binding. % Ctrl=[(test compound signal−positive control signal)/(negative control signal−positive control signal)]×100, wherein the negative control was DMSO.

[5] = read-out: p38α DC50 (concentration at which half-maximal degradation is achieved)

T2 sequence (Q16539 whole entry): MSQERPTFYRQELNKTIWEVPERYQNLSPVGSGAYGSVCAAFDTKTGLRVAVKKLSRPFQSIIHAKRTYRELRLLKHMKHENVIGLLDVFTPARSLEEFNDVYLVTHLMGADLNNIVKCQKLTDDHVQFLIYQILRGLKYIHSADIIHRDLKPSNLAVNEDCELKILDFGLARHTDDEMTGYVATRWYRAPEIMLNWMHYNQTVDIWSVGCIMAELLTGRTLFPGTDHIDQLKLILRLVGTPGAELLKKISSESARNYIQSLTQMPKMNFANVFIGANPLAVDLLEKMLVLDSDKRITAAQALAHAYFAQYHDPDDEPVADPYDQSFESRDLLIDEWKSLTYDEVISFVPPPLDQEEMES
T1 sequence (P08581 25-1390): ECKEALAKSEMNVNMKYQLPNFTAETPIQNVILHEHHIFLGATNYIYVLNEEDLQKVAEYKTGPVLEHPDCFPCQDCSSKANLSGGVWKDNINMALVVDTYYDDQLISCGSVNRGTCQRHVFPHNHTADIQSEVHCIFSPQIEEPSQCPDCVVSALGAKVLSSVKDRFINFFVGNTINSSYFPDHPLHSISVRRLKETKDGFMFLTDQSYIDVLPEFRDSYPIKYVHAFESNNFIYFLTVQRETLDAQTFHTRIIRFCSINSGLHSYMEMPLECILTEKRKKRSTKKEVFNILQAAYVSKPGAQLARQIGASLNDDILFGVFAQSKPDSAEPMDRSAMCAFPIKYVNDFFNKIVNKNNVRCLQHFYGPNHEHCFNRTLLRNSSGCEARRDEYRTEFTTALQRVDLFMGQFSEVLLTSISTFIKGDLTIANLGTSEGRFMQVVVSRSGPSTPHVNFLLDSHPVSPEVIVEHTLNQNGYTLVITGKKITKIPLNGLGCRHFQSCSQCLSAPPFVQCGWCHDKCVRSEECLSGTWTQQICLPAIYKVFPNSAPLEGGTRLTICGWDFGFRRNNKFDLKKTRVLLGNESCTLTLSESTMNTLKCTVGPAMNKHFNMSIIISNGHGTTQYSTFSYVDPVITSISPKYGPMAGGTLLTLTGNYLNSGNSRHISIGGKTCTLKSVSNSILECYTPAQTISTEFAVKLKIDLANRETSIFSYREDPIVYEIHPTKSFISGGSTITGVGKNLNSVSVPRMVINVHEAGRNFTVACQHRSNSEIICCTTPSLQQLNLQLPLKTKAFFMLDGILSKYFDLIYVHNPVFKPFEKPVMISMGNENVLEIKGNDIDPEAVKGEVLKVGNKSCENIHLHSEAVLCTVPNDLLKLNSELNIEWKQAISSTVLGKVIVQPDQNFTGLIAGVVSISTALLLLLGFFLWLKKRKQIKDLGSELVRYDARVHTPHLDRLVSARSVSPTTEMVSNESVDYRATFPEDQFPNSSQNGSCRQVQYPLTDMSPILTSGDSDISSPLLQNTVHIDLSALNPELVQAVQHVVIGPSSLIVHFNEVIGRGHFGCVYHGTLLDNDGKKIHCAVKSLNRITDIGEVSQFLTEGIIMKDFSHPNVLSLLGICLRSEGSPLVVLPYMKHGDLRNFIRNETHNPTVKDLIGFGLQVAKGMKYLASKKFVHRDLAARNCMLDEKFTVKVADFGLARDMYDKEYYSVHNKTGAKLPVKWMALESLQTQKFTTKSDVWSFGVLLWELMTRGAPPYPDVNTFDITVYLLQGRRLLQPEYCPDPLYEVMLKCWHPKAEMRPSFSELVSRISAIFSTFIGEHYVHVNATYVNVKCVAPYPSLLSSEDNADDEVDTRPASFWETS
T4 sequence (P20794 whole entry): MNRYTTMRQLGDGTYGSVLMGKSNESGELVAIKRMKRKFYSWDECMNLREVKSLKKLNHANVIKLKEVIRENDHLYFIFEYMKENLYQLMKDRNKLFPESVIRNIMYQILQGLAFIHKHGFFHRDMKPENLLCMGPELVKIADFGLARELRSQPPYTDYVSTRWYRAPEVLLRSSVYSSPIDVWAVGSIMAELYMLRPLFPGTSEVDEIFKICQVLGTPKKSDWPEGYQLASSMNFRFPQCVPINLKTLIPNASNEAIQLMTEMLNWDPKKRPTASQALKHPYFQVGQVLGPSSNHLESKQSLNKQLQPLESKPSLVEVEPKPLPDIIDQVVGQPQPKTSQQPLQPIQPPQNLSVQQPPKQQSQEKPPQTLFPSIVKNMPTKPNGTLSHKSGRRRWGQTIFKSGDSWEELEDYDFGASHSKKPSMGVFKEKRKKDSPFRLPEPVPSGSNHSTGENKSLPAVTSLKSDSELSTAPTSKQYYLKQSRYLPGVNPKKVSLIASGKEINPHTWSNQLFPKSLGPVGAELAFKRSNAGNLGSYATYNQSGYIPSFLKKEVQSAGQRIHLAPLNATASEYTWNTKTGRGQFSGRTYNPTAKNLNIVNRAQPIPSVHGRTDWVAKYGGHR

Dmax (cMET) [%] | DC50 (p38α [1]) [nM] | Dmax (p38α [1]) [%] | Dmax (p38δ [2]) [%] | DC50 (p38δ [2]) [nM] | DC50 (p38α [3]; [5]) [µM] | Dmax (p38α [3]) [%] | DC50 (p38δ [4]) [µM] | Dmax (p38δ [4]) [%] | % Ctrl (MAK) [% Ctrl] | DC50 (p38α [3]; read-out: p38α DC50) [µM] | Structure (SMILES)
44 | 18.8 | 99 | 91 | 91.7 | 0.0188 | 99.4 | 0.0917 | 91 |  |  | COc1cc2c(Oc3ccc(NC(=O)C4(C(=O)Nc5ccc(F)cc5)CC4)cc3F)ccnc2cc1OCCCOCCOCCC(=O)N[C@H](C(=O)N1C[C@H](O)C[C@H]1C(=O)NCc1ccc(-c2scnc2C)cc1)C(C)(C)C [Ex. 48, N-(3-fluoro-4-((7-(3-(2-(3-(((S)-1-((2S,4R)-4-hydroxy-2-((4-(4-methylthiazol-5-yl)benzyl)carbamoyl)pyrrolidin-1-yl)-3,3-dimethyl-1-oxobutan-2-yl)amino)-3-oxopropoxy)ethoxy)-propoxy)-6-methoxyquinolin-4-yl)oxy)phenyl)-N-(4-fluorophenyl)cyclopropane-1,1-dicarboxa-mide]
49 | 40.1 | 91 | 81 | 51.4 | 0.0401 | 91 | 0.0514 | 81 |  |  | COc1cc2c(Oc3ccc(NC(=O)C4(C(=O)Nc5ccc(F)cc5)CC4)cc3F)ccnc2cc1OCCOCCOCCC(=O)N[C@H](C(=O)N1C[C@H](O)C[C@H]1C(=O)NCc1ccc(-c2scnc2C)cc1)C(C)(C)C [Ex. 49, N-(3-fluoro-4-((7-(2-(2-(3-(((S)-1-((2S,4R)-4-hydroxy-2-((4-(4-methylthiazol-5-yl)benzyl)carba-moyl)pyrrolidin-1-yl)-3,3-dimethyl-1-oxobutan-2-yl)amino)-3-oxopropoxy)ethoxy)ethoxy)-6-methoxyquinolin-4-yl)oxy)phenyl)-N-(4-fluorophenyl)cyclopropane-1,1-dicarboxamide]
 |  |  |  |  |  | 17 | 4.9 | 52 |  | ≥ 5 | COc1cc2c(Oc3ccc(NC(=O)C4(C(=O)Nc5ccc(F)cc5)CC4)cc3F)ccnc2cc1OCCCOCCOCCCOc1cc(-c2scnc2C)ccc1CNC(=O)[C@@H]1C[C@@H](O)CN1C(=O)[C@H](C(C)C)N1Cc2ccccc2C1=O [Ex. 5]

Continued, compound first:

Structure (SMILES) | Dmax (cMET) [%] | DC50 (p38α [1]) [nM] | Dmax (p38α [1]) [%] | Dmax (p38δ [2]) [%] | DC50 (p38δ [2]) [nM] | DC50 (p38α [3]; [5]) [µM] | Dmax (p38α [3]) [%] | DC50 (p38δ [4]) [µM] | Dmax (p38δ [4]) [%] | % Ctrl (MAK) [% Ctrl] | DC50 (p38α [3]; read-out: p38α DC50) [µM]
COc1cc2c(Oc3ccc(NC(=O)C4(C(=O)Nc5ccc(F)cc5)CC4)cc3F)ccnc2cc1OCCCN1CCOCC1 [Foretinib, foretinib, reference compound] |  |  |  |  |  |  |  |  |  | 55 | 
COc1cc2c(Oc3ccc(NC(=O)C4(C(=O)Nc5ccc(F)cc5)CC4)cc3F)ccnc2cc1OCCCCOCCCCOc1cc(-c2scnc2C)ccc1CNC(=O)[C@@H]1C[C@@H](O)CN1C(=O)[C@H](C(C)C)N1Cc2ccccc2C1=O [Ex. 45] |  | > 5000 | 27 | 43 | > 5000 |  | 25 | > 5 | 44 |  | > 5
COc1cc2c(Oc3ccc(NC(=O)C4(C(=O)Nc5ccc(F)cc5)CC4)cc3F)ccnc2cc1OCCCOCCCOCCCOc1cc(-c2scnc2C)ccc1CNC(=O)[C@@H]1C[C@@H](O)CN1C(=O)[C@H](C(C)C)N1Cc2ccccc2C1=O [Ex. 47, N-(3-fluoro-4-((7-(3-(3-(3-(2-(((2S,4R)-4-hydroxy-1-((S)-3-methyl-2-(1-oxoisoindolin-2-yl)butano-yl)pyrrolidine-2-carboxamido)methyl)-5-(4-methylthiazol-5-yl)phenoxy)propoxy)-propoxy)propoxy)-6-methoxyquinolin-4-yl)oxy)phenyl)-N-(4-fluorophenyl)cyclopropane-1,1-dicarboxamide] |  | > 5000 | 12 | 23 | > 5000 |  | 20 | > 5 | 33 |  | > 5
